Laboratory results taken from patent US7166618B2, “Nitrosated and nitrosylated cyclooxygenase-2 inhibitors, compositions and methods of use” (NitroMed, Inc., priority 1999, dated 2007).

Key:
[1] = tested on: rat aortic smooth muscle rings; test: Relaxation of phenylephrine-contracted rat aortic smooth muscle rings; conditions: rings precontracted with 10 μM phenylephrine
Protocol: Male Sprague-Dawley rats (Charles River Laboratories (Wilmington, Mass.) were euthanized by intraperiton injection of a high dose of sodium pentobarbitone (80–100 mg/kg). The thoracic aorta was rapidly excised and immediately placed in a Petri dish containing warm (37° C.) oxygenated (95% O2 and 5% CO2) Kreb's buffer (composition per millimolar: NaCl (119); KCl (4.69); CaCl2.H2O (2.52); MgSO4.7H2O (0.57); NaHCO3 (25); NaH2PO4.H2O (1.01) and glucose (11.1). Under a stereoscopic dissecting microscope, the aorta was cleaned, freed from adhering fat and connective tissues. The tissue was cut into ring segments, each approximately 2–3 mm in length.
For experiments to measure relaxation of the tissue under various conditions, a stainless steel tissue holder and an U-shaped stainless steel wire were inserted into the lumen of the aortic ring. The tissue holder anchored the ring at the bottom of the organ bath whereas the end of the U-shaped steel wire was tied with fine silk thread so that it connected to the FT-202 transducer. The tissue holder and the steel wire along with the aortic ring were then suspended in a 5-mL double-jacketed temperature-controlled glass organ bath (Radnoti Glass Technology, Inc., Monrovia, Calif.) filled with fresh Kreb's buffer. A mixture of 95% O2 and 5% CO2 was bubbled through a porous sintered disc at the bottom of the bath. The rings were given an initial resting tension of 1.5 g and the preparation was allowed to equilibrate at the initial tension for about 90 minutes. During this equilibration period, the bath fluid was changed every 15 minutes and replaced with fresh prewarmed (37° C.) Kreb's buffer. The isometric tension of the aortic muscle at rest and its response to different stimuli were recorded on a Power Macintosh 6100 computer via a MacLab 8/S computer interface (CB Sciences, Inc, Milford, Mass.) after an initial amplification through a low-noise ETH-400 bioamplifier (CB Sciences, Inc, Milford, Mass.). Contractile responsiveness of the tissue strips was established with 10 μM phenylephrine and the strips were incubated with the drug for 20 minutes to establish a steady level of contraction. To test the relaxation effects, test compounds were added to the phenylephrine-precontracted strips in the tissue bath at cumulative concentrations of 0.1 μM to 0.1 mM. Concentration of test compounds was increased only after relaxation at the previous concentration had reached a plateau level.

human COX-2 = target: T1, human COX-2 (Homo sapiens, UniProt P35354); test: Assay for human COX-2 activity (COX Inhibitor Screening Assay, Cayman); format: biochemical; conditions: human COX-2, at 10 μM
T1 construct: purchased Cayman Chemical, Ann Arbor, Mich
T1 sequence (P35354 18-604): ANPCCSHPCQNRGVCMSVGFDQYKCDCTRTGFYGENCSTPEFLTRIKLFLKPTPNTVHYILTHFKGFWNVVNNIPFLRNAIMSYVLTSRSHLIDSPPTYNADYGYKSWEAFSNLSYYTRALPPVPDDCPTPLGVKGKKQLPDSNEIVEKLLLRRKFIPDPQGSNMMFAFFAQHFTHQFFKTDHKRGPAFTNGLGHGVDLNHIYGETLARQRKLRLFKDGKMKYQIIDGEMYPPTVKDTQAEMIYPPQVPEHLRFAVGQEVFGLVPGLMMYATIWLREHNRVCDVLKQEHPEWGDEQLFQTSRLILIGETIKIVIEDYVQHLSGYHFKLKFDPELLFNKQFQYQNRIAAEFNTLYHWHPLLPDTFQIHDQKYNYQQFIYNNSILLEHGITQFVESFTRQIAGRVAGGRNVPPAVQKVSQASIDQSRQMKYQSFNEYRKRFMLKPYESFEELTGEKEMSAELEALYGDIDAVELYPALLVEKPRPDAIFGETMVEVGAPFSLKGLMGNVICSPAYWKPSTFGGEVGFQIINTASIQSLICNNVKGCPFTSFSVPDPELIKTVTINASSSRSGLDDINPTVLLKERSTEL
Protocol: The human COX-1 and COX-2 activities and the measurement of the prostaglandin products synthesized were performed using the COX Inhibitor Screening Assay (Cayman Chemical, Ann Arbor, Mich., which also contained the Prostaglandin Screening EIA Kit, used for prostaglandin quantification). The test compounds were dissolved at 50 times the highest final reaction concentration in DMSO or any other suitable solvent as stock solutions. These stock solutions were then diluted in the same solvent. Eight glass test tubes (13×100 mm) were placed in a 25° C. water bath. To each test tube was added 950 μL of reaction buffer (0.1 M Tris-HCl, pH 8.0, containing 5 mM EDTA, and 2 mM phenol), 10 μL of 100 µM heme solution, and 10 μL (5 units) of either human COX-1 or COX-2 and the resulting mixture incubated with the enzyme for 2 minutes. Twenty μL of the solvent was added to one tube (100% initial activity or solvent control) and 20 μL of each dilution of the test compound was added to one tube each. Each tube was vortexed immediately after the addition. The enzyme was incubated with the inhibitor for 20 minutes at 25° C. The enzymatic reaction was then initiated by the addition of 10 μL of freshly prepared 10 mM arachidonic acid (neutralized with KOH), vortexed and then incubated for 2 minutes (or, in some cases as indicated, 30 seconds) at 37° C. The reaction was terminated by the addition of 50 μL of 1 M HCl, vortexed and placed at room temperature. One hundred microliters of a saturated stannous chloride solution (50 mg/mL of 0.1 M HCl) was added and the reaction mixture was allowed to stand at room temperature for at least 5 min.
The prostaglandins (PG) produced in the reactions were assayed, after a 2,000-fold dilution, using the Prostaglandin Screening EIA Kit (Cayman Chemical, Ann Arbor, Mich.). The assay contains an antibody with broad specificity for all the prostaglandin families (PGF, PGE, PGD, and thromboxane B-type) synthesized in the COX-1/COX 2 reactions. The synthesized prostaglandin competes with a PG-tagged acetylcholine esterase tracer for binding to the PG antibody. Binding of synthesized PG lowers the colorimetric development of the Ellman's Reagent (computed as % B/B0). The actual amount of synthesized PG was interpolated from a standard curve using known amounts of supplied prostaglandin E2 (PGE2) (PGE2 concentration vs. % B/B0). The data generated were the mean±standard deviation of triplicate wells in the EIA for a single reaction at a given inhibitor concentration.

SMILES: NS(=O)(=O)c1ccc(-c2c(-c3ccccc3)noc2CO[N+](=O)[O-])cc1 [Example 2b, 4-(5-((Nitrooxy)methyl)-3-phenylisoxazol-4-yl)benzenesulfonamide]
- relaxation of aortic smooth muscle ring ([1]; 100 nM to 100 μM test compound): induced the relaxation of the aortic ring
- relaxation compared with reference NO donor (ISDN or GSNO) ([1]; comparator as in the value): comparable to that obtained with ISDN
- inhibition at 10 µM (human COX-2): 100%
